# Reference: PMC4736406 (Stem Cells International, 2016)
# Counter-ions that a name gives are not always drawn.
# What was measured:
# HepG2 cells = assay: Image based high content analysis (HCA), fixed and live assays, in HepG2
# Procedure: Briefly, the cells were grown in DMEM supplemented with 10% heat inactivated FBS, 1% penicillin-streptomycin (PEST), 1% sodium pyruvate, and 1% nonessential amino acids. Cells were passaged at 1 : 8 or 1 : 6 every 3-4 days when they reach 75–80% confluence. Seeding density was optimized for HCA application to ensure that the cells were in a monolayer (5000 cells per well in 96-well plates) for precise imaging. The cells were grown for 48 h to attach and stabilize. The experiments performed with HepG2 cells were designed to ensure that each assay was performed with cells in a similar growth phase.
# Each concentration was assayed in triplicate wells. […] The experimental process is illustrated in Figure 2.
# And finally, TOTO-3 was used for assessing PMP.
# The cells were imaged using an Olympus ScanR system.
# All other fluorescence signals were considered as subobjects.
# [1] = test system: hiPSC derived hepatocytes (hiPS-HEP);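 also: hiPS-HEP obtained from ChiPSC4 through definitive endoderm under serum- and feeder-free conditions in 96-well plates, fluorescence imaging, each concentration run in triplicate wells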
# Text: (§1) For hepatic differentiation, a serum- and feeder-free procedure recapitulating liver development was applied. First, ChiPSC4 was guided to differentiate into definitive endoderm using the Cellartis DE Diff Kit (Takara Bio Europe AB; Y30030), containing complete media and coating solution for differentiation of hPSC to DE cells in 2D culture. On day 7 of differentiation, the DE cells were enzymatically dissociated and reseeded into fibronectin coated 96-well plates. […] Wells of 96-well plates were coated by adding fibronectin solution 0.15 mL per cm^2 to the wells and let to incubate for >60 min at RT. […] Next, the cell suspension was centrifuged for 5 min at 300 g at RT, the supernatant was removed, and the cell pellet was resuspended in warm Hepatocyte Thawing and Seeding medium (Cellartis Hepatocyte Diff Kit; Takara Bio Europe AB; Y30050). Prior to seeding of cells, excess coating was removed and 150 K DE cells/cm^2 were seeded in the 96-well plates. On days 9 and 11 (counted from the start of ChiPSC4 differentiation), medium was changed using Hepatocyte Progenitor Medium (Cellartis Hepatocyte Diff Kit).
# (§2) The cells were treated for 48 h with compounds at varying concentrations (half log dilution from the top concentration). […] The stock solutions were prepared in DMSO or water and were diluted in culture medium to obtain the final concentration. Each concentration was assayed in triplicate wells. Vehicle control wells were included and the final DMSO concentration in the medium never exceeded 0.5% (v/v). Each batch had two plates each for fixed and live assays.
# (§3) LipidTOX Green neutral lipids and LipidTox Red phospholipidosis were used for identifying neutral lipid and phospholipid formation within the cells. MMP changes (Δψm) within the cell were measured using MitoTracker orange. Carboxy-H2DCFDA (6-carboxy-2′,7′-dichlorodihydrofluorescein diacetate) an acetylated fluorescent was used for measuring ROS. And finally, TOTO-3 was used for assessing PMP.
# (§4) The fluorescence probes were grouped into two sets according to their optical compatibility and requirement of fixed or live material. […] The fluorescent probes for neutral lipids and phospholipids required the cells to be fixed and were assigned to the fixed assay. The probes MitoTracker orange, carboxy-H2DCFDA, and TOTO-3 were assigned to the live assay.
# (§5) Following compound incubation, probes were administered to the cultures of the live assay. […] After incubation for 45 min at optimal cell culture conditions, the cells were changed to phenol red (PR) free medium for live cell imaging. For fixed assay, LipidTox Red probe was added with the compounds, and after 48 h the cells were fixed in 4% PFA supplemented with 1X Hoechst stain for 30 min at room temperature. Subsequently, cells were washed with PBS^+/+ and 1X LipidTOX Green stain diluted in PBS^+/+ was incubated with the cells for 30 min at room temperature. The plates were imaged without removing the buffer with probe.
# (§6) The cells were imaged using an Olympus ScanR system. Prior to image acquisition, the heating system and CO2 gas flow were started to ensure optimal conditions in the ScanR chamber for live cell analysis. The incubator was set to 37°C with 5% CO2 and relative humidity of 90%. […] 20X long distance objective with NA 0.45 was used to image distinct fluorescence channels. In order to cover the entire well and also to capture maximum cell events sixteen fields per well (4 × 4 tile grid spread equally) were imaged. The channel exposure time for LipidTOX Green, LipidTOX Red, MitoTracker orange, and carboxy-H2DCFHDA were set based on the fluorescence of the negative control wells and were set constant within each plate. Exposure time for Hoechst and TOTO-3 was set in the range of 1–10 ms depending on cellular fluorescence intensity.
# (§7) The acquired images were analyzed using ScanR analysis program from Olympus.
# [2] = plasma; no reference given; read-out: C max (maximum plasma concentration of the drug); cited from earlier work
# [3] = test system: hiPSC derived hepatocytes (hiPS-HEP); assay: Image based high content analysis (HCA), fixed and live assays, in hiPSC derived hepatocytes;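 also: hiPS-HEP obtained from ChiPSC4 through definitive endoderm under serum- and feeder-free conditions in 96-well plates, fluorescence imaging, each concentration run in triplicate wells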
# Text: as §1, §2, §3, §4, §5, §6, §7
# [4] = HepG2, fixed assay, 48 h, p<0.05 vs control
# [5] = HepG2, fixed, at 100 µM (Amiodarone HCL at […])
# [6] = HepG2, live assay, 48 h, p<0.05 vs control
# [7] = HepG2, live, at 100 µM (Amiodarone HCL at […])
compound,measurement,setting,value
"CCCCc1oc2ccccc2c1C(=O)c1cc(I)c(OCCN(CC)CC)c(I)c1 [Amiodarone, amiodarone hydrochloride]",Detection of phospholipid accumulation / phospholipidosis,HepG2 cells; HepG2,false negative prediction
same,Category based on degree of injury,"HepG2 cells; HepG2, […] for amiodarone, 100 μM for the others",severely
same,"Severity (sum of individual scores, degree of injury)","HepG2 cells; HepG2, at 100 µM (Amiodarone HCL at […])",20
same,IC50/EC50 Nucleus Area,"HepG2 cells; HepG2, fixed assay, 48 h",39.5 µM
same,IC50/EC50 Nucleus Cell count,"HepG2 cells; HepG2, fixed assay, 48 h",7.6 µM
same,IC50/EC50 Nucleus MI,"HepG2 cells; HepG2, fixed assay, 48 h",140 µM
same,IC50/EC50 Phospholipidosis Area,"HepG2 cells; HepG2, fixed assay, 48 h",7.3 µM
same,IC50/EC50 Phospholipidosis Count,"HepG2 cells; HepG2, fixed assay, 48 h",8.9 µM
same,IC50/EC50 Phospholipidosis MI,"HepG2 cells; HepG2, fixed assay, 48 h",35.6 µM
same,IC50/EC50 Steatosis Area,"HepG2 cells; HepG2, fixed assay, 48 h",30.6 µM
same,IC50/EC50 Steatosis Count,"HepG2 cells; HepG2, fixed assay, 48 h",19.5 µM
same,IC50/EC50 Steatosis MI,"HepG2 cells; HepG2, fixed assay, 48 h",23.6 µM
same,"MEC, steatosis area (S, A)",HepG2 cells; [4],125 µM
same,"MEC, steatosis mean intensity (S, MI)",HepG2 cells; [4],39.5 µM
same,"Minimal effective concentration (MEC), viability cell count (V, CC)",HepG2 cells; [4],4 µM
same,"Degree of injury score, Neutral Lipids Area",HepG2 cells; [5],0 (variation lower than 25%)
same,"Degree of injury score, Neutral Lipids C",HepG2 cells; [5],2 (variation 150-300%)
same,"Degree of injury score, Neutral Lipids MI",HepG2 cells; [5],3 (variation >300%)
same,"Degree of injury score, Nucleus Area",HepG2 cells; [5],1 (variation ± 20-40%)
same,"Degree of injury score, Nucleus CC",HepG2 cells; [5],3 (variation ± 60-100%)
same,"Degree of injury score, Nucleus MI",HepG2 cells; [5],1 (variation ± 20-40%)
same,"Degree of injury score, Phospholipids Area",HepG2 cells; [5],1 (variation 25-150%)
same,"Degree of injury score, Phospholipids C",HepG2 cells; [5],0 (variation lower than 25%)
same,"Degree of injury score, Phospholipids MI",HepG2 cells; [5],0 (variation lower than 25%)
same,Degree of injury (category),"HepG2 cells; HepG2, isomolar concentration of 100 µM ([…] for amiodarone)",Severe hepatotoxicity (severely toxic (≥15))
same,IC50/EC50 MMP MI,"HepG2 cells; HepG2, live assay, 48 h",345 µM
same,IC50/EC50 Nucleus Area,"HepG2 cells; HepG2, live assay, 48 h",29.1 µM
same,IC50/EC50 Nucleus Cell count,"HepG2 cells; HepG2, live assay, 48 h",7.2 µM
same,IC50/EC50 Nucleus MI,"HepG2 cells; HepG2, live assay, 48 h",25.0 µM
same,IC50/EC50 PMP MI,"HepG2 cells; HepG2, live assay, 48 h",147 µM
same,IC50/EC50 ROS MI,"HepG2 cells; HepG2, live assay, 48 h",4.6 µM
same,"MEC, MMP mean intensity",HepG2 cells; [6],12.5 µM
same,"MEC, ROS mean intensity",HepG2 cells; [6],12.5 µM
same,"MEC, viability cell count (V, CC)",HepG2 cells; [6],12.5 µM
same,"Degree of injury score, MMP MI",HepG2 cells; [7],1 (variation ± 20-40%)
same,"Degree of injury score, Nucleus Area",HepG2 cells; [7],1 (variation ± 20-40%)
same,"Degree of injury score, Nucleus CC",HepG2 cells; [7],3 (variation ± 60-100%)
same,"Degree of injury score, Nucleus MI",HepG2 cells; [7],2 (variation ± 40-60%)
same,"Degree of injury score, PMP MI",HepG2 cells; [7],1 (variation ± 20-40%)
same,"Degree of injury score, ROS MI",HepG2 cells; [7],1 (variation ± 20-40%)
same,Concentration below which no cytotoxic effects were displayed,"[1]; human, 48 h",12.5 µM
"C[C@H]1c2cccc(O)c2C(=O)C2=C(O)[C@]3(O)C(=O)C(C(N)=O)=C(O)[C@@H](N(C)C)[C@@H]3[C@@H](O)[C@@H]21 [Doxycycline, doxycycline]",IC50/EC50 Nucleus Cell count,"HepG2 cells; HepG2, fixed assay, 48 h",165 µM
same,IC50/EC50 Nucleus MI,"HepG2 cells; HepG2, fixed assay, 48 h",892 µM
same,IC50/EC50 Steatosis Area,"HepG2 cells; HepG2, fixed assay, 48 h",398 µM
same,IC50/EC50 Steatosis Count,"HepG2 cells; HepG2, fixed assay, 48 h",260 µM
same,IC50/EC50 MMP MI,"HepG2 cells; HepG2, live assay, 48 h",622 µM
same,IC50/EC50 Nucleus Cell count,"HepG2 cells; HepG2, live assay, 48 h",120.3 µM
same,IC50/EC50 Nucleus MI,"HepG2 cells; HepG2, live assay, 48 h",153 µM
same,IC50/EC50 ROS MI,"HepG2 cells; HepG2, live assay, 48 h",115 µM
same,"MEC, MMP mean intensity","HepG2 cells; human, 48 h",1000 µM
same,"MEC, PMP mean intensity","HepG2 cells; human, 48 h",1000 µM
same,"MEC, ROS mean intensity","HepG2 cells; human, 48 h",316 µM
same,"MEC, nuclear changes area (NC, A)","HepG2 cells; human, 48 h",1000 µM
same,"MEC, nuclear changes mean intensity (NC, MI)","HepG2 cells; human, 48 h",1000 µM
same,"MEC, steatosis droplet count (S, C)","HepG2 cells; human, 48 h",316 µM
same,"MEC, steatosis mean intensity (S, MI)","HepG2 cells; human, 48 h",1000 µM
same,"MEC, viability cell count (V, CC)","HepG2 cells; human, 48 h",316 µM
same,"Minimal effective concentration (MEC), viability cell count (V, CC)","HepG2 cells; human, 48 h",100 µM
same,SRI (steatotic risk index) Lipid,"HepG2 cells; human, 48 h",36
same,SRI (steatotic risk index) ROS,"HepG2 cells; human, 48 h",36
same,TR (toxicity risk),"HepG2 cells; human, 48 h",11.4
same,Effect on mitochondrial membrane,[1],concentration dependent depolarization of the mitochondrial membrane
same,Phospholipid parameters / accumulation of phospholipids,[1],no changes were detected
same,ROS levels,[1],unaffected
same,Concentration at which increase in lipid accumulation / lipid droplets was observed,"[1]; human, 48 h",320 µM
same,"MEC, MMP mean intensity","[1]; human, 48 h",1000 µM
same,"MEC, PMP mean intensity","[1]; human, 48 h",31.6 µM
same,"MEC, nuclear changes mean intensity (NC, MI)","[1]; human, 48 h",100 µM
same,"MEC, steatosis droplet count (S, C)","[1]; human, 48 h",316 µM
same,"MEC, steatosis mean intensity (S, MI)","[1]; human, 48 h",1000 µM
same,"MEC, viability cell count (V, CC)","[1]; human, 48 h",1000 µM
same,"Minimal effective concentration (MEC), viability cell count (V, CC)","[1]; human, 48 h",100 µM
same,SRI (steatotic risk index) Lipid,"[1]; human, 48 h",36
same,SRI (steatotic risk index) ROS,"[1]; human, 48 h",>114
same,TR (toxicity risk),"[1]; human, 48 h",3.6
same,Cmax,[2],8.8 µM
same,IC50/EC50 Nucleus Area,"[3]; hiPS-HEP, fixed assay, 48 h",96.1 µM
same,IC50/EC50 Nucleus Cell count,"[3]; hiPS-HEP, fixed assay, 48 h",107 µM
same,IC50/EC50 Nucleus MI,"[3]; hiPS-HEP, fixed assay, 48 h",47.2 µM
same,IC50/EC50 Steatosis Count,"[3]; hiPS-HEP, fixed assay, 48 h",115 µM
same,IC50/EC50 Steatosis MI,"[3]; hiPS-HEP, fixed assay, 48 h",441 µM
same,IC50/EC50 MMP MI,"[3]; hiPS-HEP, live assay, 48 h",644 µM
same,IC50/EC50 Nucleus Area,"[3]; hiPS-HEP, live assay, 48 h",204.3 µM
same,IC50/EC50 Nucleus Cell count,"[3]; hiPS-HEP, live assay, 48 h",69.4 µM
same,IC50/EC50 Nucleus MI,"[3]; hiPS-HEP, live assay, 48 h",120 µM
same,IC50/EC50 PMP MI,"[3]; hiPS-HEP, live assay, 48 h",26.9 µM
same,IC50/EC50 ROS MI,"[3]; hiPS-HEP, live assay, 48 h",10.5 µM
same,Concentration from which effects on plasma membrane permeability (PMP) start,[3]; hiPSC derived hepatocytes,32 µM
same,Cell count reduction,"[3]; hiPSC derived hepatocytes, at 100 μM",50%
